The source of these data is the supplement of paper PMC12463676, “Small-molecule dissolution of stress granules by redox modulation benefits ALS models” (Nature Chemical Biology, 2025).

Compound in assay [1]: NC(=O)CCCCC1CCSS1 [lipoamide]
Briefly: thermal stability z-score vs DMSO; higher = more thermally stabilized by treatment. The following applies: HeLa, lipoamide concentration 100 µM. As for the experimental part: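 Cellular thermal proteome profiling in HeLa cells. Cells were treated with 100 µM lipoamide for 1 h, with or without 1 mM arsenate for a further 1 h, then heated to ten temperatures (37-66.3 °C), and soluble protein was quantified by TMT mass spectrometry relative to 0.1% DMSO controls. The thermal stability score (sum of log2 fold changes minus the abundance score) was transformed to a z-score; mean of n = 3 experiments.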

Compound in assay [2]: O=[As]([O-])(O)O.[K+] [potassium arsenate]
Described as above. The following applies: HeLa; arsenate concentration 1 mM. As for the experimental part: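 Cellular thermal proteome profiling in HeLa cells treated with 1 mM arsenate for 1 h (DMSO pretreatment), heated to ten temperatures (37-66.3 °C). Soluble protein was quantified by TMT mass spectrometry relative to DMSO controls; the thermal stability score was transformed to a z-score; mean of n = 3 experiments.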

Setting [3] is: arsenate co-treatment: 1 mM arsenate 1 h.
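Further: each temperature applied for 3 min, abundance score taken as mean log2 fold change at the two lowest temperatures, z-score obtained by mean subtraction and division by SD.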

UniProt Q9ULH0, sequence (Q9ULH0 whole entry): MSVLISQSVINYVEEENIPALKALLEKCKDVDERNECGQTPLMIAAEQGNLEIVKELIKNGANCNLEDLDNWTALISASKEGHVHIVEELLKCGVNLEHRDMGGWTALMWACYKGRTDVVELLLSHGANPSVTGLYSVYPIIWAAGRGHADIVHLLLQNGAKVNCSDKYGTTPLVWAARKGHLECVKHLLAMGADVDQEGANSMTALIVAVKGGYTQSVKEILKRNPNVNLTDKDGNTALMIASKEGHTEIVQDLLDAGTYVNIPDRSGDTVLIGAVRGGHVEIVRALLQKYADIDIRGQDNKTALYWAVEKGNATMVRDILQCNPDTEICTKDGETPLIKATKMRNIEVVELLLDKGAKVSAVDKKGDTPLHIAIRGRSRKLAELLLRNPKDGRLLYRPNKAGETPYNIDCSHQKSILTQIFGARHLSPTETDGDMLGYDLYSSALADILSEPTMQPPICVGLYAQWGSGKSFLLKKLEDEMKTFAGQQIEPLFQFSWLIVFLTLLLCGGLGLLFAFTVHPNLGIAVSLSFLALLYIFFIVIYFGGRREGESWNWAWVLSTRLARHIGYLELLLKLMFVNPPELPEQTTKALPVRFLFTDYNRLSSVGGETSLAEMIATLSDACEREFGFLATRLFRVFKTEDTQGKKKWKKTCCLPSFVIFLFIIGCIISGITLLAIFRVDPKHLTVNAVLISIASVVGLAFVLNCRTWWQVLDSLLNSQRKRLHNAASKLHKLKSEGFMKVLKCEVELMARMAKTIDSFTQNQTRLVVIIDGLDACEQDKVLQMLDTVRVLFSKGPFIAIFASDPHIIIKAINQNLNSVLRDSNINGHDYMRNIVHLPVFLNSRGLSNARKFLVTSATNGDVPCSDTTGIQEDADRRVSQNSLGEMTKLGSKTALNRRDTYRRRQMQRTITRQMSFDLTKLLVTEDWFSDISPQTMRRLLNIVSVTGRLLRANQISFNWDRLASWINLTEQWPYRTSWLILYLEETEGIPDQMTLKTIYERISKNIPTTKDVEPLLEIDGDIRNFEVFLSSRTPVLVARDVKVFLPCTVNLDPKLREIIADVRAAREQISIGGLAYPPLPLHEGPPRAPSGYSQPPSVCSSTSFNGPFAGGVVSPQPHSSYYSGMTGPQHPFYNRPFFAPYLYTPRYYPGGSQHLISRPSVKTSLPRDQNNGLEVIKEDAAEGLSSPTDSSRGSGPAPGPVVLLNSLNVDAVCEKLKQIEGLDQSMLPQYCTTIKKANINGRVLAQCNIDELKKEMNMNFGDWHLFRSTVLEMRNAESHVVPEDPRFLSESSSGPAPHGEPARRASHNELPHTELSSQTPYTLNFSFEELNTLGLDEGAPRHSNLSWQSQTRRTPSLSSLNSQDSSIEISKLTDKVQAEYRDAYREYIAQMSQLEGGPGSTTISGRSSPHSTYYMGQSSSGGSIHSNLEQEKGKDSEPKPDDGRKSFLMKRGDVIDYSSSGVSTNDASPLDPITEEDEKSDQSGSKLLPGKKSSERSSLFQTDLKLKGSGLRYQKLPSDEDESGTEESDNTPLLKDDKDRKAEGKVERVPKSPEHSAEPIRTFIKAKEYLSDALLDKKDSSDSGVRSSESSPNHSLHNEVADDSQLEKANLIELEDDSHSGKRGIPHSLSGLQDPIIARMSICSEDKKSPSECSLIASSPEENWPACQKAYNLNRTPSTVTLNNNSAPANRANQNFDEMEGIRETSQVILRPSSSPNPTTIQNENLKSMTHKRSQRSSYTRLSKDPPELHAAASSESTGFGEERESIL
UniProt Q9UHW9, sequence (Q9UHW9 whole entry): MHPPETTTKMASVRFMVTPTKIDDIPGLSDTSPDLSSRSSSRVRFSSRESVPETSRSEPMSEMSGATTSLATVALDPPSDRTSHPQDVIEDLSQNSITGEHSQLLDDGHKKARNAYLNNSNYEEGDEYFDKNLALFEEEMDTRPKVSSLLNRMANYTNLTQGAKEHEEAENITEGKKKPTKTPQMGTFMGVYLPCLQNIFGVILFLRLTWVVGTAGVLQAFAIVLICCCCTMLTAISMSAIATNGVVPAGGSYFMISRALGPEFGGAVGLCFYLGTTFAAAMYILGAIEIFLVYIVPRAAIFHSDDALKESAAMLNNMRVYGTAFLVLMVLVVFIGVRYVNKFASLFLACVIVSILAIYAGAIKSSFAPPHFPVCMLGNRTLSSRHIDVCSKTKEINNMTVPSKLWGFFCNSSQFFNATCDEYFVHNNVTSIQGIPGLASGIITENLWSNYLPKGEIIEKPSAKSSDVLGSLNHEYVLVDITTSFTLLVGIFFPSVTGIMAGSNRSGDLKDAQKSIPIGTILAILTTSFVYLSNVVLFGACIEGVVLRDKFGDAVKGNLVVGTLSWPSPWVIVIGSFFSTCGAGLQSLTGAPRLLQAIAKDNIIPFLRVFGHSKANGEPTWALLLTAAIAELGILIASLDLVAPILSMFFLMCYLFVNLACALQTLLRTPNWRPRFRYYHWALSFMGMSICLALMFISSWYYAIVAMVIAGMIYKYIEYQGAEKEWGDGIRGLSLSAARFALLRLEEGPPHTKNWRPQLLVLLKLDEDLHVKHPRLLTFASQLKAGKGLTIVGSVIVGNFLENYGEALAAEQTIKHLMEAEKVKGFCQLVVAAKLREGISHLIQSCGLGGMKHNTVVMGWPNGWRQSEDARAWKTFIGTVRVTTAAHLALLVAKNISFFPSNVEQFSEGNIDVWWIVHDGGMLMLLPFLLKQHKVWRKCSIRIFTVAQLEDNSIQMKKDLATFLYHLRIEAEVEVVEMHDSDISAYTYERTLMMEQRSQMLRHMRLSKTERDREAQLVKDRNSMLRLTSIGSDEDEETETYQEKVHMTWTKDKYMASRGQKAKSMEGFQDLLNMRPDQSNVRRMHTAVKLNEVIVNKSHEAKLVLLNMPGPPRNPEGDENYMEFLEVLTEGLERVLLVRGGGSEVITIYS
UniProt O60716, sequence (O60716 whole entry): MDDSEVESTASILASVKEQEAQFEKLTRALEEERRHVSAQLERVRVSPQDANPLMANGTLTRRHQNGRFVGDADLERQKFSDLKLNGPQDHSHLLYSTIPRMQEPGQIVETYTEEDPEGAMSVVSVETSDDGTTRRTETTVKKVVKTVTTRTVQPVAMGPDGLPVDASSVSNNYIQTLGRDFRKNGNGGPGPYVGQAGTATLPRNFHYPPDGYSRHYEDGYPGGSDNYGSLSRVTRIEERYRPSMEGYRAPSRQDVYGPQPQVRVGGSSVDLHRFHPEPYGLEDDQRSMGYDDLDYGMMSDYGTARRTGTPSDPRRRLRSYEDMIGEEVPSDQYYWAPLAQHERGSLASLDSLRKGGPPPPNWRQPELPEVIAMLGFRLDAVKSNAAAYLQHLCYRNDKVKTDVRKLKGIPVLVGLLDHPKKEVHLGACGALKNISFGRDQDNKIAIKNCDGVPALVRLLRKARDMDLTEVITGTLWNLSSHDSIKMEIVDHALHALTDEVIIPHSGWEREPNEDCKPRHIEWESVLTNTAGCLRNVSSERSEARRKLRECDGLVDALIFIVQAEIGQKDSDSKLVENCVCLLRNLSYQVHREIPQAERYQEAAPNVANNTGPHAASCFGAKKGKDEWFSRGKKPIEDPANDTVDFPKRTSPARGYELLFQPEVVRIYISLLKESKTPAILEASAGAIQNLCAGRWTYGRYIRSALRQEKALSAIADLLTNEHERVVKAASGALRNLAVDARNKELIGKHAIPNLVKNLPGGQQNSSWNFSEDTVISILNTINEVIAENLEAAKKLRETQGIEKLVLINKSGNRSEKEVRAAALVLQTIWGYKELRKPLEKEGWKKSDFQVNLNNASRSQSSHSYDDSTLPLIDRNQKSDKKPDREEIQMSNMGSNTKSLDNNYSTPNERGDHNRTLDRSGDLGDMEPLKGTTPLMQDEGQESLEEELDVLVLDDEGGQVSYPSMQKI
UniProt Q9Y3C6, sequence (Q9Y3C6 whole entry): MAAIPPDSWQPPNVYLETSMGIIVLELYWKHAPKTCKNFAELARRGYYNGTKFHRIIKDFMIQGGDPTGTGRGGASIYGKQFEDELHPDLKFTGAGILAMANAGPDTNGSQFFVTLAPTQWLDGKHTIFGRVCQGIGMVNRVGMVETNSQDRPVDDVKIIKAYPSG
UniProt P31942, sequence (P31942 whole entry): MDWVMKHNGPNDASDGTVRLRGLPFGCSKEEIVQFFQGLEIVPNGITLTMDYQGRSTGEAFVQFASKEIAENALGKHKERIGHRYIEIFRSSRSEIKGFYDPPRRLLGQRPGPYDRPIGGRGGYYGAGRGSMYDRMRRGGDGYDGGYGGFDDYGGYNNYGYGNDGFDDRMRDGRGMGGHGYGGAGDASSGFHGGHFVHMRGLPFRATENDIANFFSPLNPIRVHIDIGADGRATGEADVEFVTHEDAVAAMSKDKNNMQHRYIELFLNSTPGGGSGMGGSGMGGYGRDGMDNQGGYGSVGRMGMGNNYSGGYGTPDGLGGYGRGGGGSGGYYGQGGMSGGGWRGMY
UniProt Q16254, sequence (Q16254 whole entry): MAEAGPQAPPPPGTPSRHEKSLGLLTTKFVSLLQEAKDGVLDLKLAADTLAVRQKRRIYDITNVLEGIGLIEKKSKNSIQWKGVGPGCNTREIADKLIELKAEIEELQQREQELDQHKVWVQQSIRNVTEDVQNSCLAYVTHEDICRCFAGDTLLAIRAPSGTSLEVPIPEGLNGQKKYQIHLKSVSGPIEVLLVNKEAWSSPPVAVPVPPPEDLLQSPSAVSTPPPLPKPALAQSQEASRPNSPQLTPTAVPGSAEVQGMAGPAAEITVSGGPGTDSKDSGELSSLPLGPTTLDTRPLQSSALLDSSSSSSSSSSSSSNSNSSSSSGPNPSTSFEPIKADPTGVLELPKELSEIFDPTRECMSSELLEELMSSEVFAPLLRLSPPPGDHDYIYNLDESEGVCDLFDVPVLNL
UniProt O95298, sequence (O95298 whole entry): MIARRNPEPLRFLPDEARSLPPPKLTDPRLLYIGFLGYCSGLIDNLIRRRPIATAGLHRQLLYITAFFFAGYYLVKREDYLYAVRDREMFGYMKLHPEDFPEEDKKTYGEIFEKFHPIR
UniProt P14854, sequence (P14854 whole entry): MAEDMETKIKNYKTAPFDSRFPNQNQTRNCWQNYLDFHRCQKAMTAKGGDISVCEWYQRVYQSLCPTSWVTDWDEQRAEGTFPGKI

Regarding MOV10 (UniProt Q9HCE1), the results for the thermal stability z-score in assay [1] (setting [3]), in assay [1] (arsenate co-treatment: none) and in assay [2] were -0.0627, 0.31 and -0.16, respectively.
Take PGD (UniProt P52209): the thermal stability z-score in assay [1] (setting [3]) turned out to be 0.318; in assay [1] (arsenate co-treatment: none) it was 0.403; in assay [2], 0.259.
In the same order, the values of BPGM (UniProt P07738) are -1.9, -0.479 and -1.82.
In the same order, the values of HNRNPH3 (UniProt P31942) are -0.175, 0.0351 and -0.243.
Turning to KLHL11 (UniProt Q9NVR0), the results for the thermal stability z-score in assay [1] (setting [3]), in assay [1] (arsenate co-treatment: none) and in assay [2] were 0.651, -0.0811 and -0.421, respectively.
With OARD1 (UniProt Q9Y530), the thermal stability z-score in assay [1] (setting [3]) was 0.407; in assay [1] (arsenate co-treatment: none), 0.708; in assay [2], -0.793.
In the same order, the values of PPP1R15B (UniProt Q5SWA1) are -0.102, -0.0322 and -0.0349.
Regarding GRAMD1B (UniProt Q3KR37), the thermal stability z-score was -0.102 in assay [1] (setting [3]), 0.0763 in assay [1] (arsenate co-treatment: none) and -0.00294 in assay [2].
In the same order, the values of KIDINS220 (UniProt Q9ULH0) are -0.105, 0.516 and 0.0983.
In the same order, the values of TNPO2 (UniProt O14787) are -1.26, -0.726 and 0.809.
For the target PPIL1 (UniProt Q9Y3C6), the thermal stability z-score in assay [1] (setting [3]) is -0.0684; in assay [1] (arsenate co-treatment: none), -0.42; in assay [2], -0.489.
In the same order, the values of E2F4 (UniProt Q16254) are 0.295, 0.54 and 0.373.
In the same order, the values of PLIN4 (UniProt Q96Q06) are 0.188, 0.324 and 0.741.
In the same order, the values of NDUFC2 (UniProt O95298) are 1.34, 0.996 and 2.15.
As for RPL29 (UniProt P47914), the thermal stability z-score in assay [1] (setting [3]) is 0.301; in assay [1] (arsenate co-treatment: none), -0.146; in assay [2] it was -0.918.
Turning to SLC12A6 (UniProt Q9UHW9), the thermal stability z-score in assay [1] (setting [3]) was -0.454; in assay [1] (arsenate co-treatment: none) it was -0.27; in assay [2], 0.131.
In the same order, the values of HSPA14 (UniProt Q0VDF9) are -0.553, -0.226 and 0.837.
For KRAS (UniProt P01116), the thermal stability z-score turned out to be 0.168 in assay [1] (setting [3]), 0.186 in assay [1] (arsenate co-treatment: none) and 0.184 in assay [2].
STAT3 (UniProt P40763): the values for the thermal stability z-score in assay [1] (setting [3]), in assay [1] (arsenate co-treatment: none) and in assay [2] were 0.0355, -0.181 and 0.426, respectively.
For CTNND1 (UniProt O60716), the thermal stability z-score in assay [1] (setting [3]) is 0.292; in assay [1] (arsenate co-treatment: none) it was 0.231; in assay [2], -0.105.
Turning to ORC3 (UniProt Q9UBD5), the thermal stability z-score was -0.0418 in assay [1] (setting [3]), -0.104 in assay [1] (arsenate co-treatment: none) and -0.00481 in assay [2].
In the same order, the values of FPGT (UniProt O14772) are -0.111, 0.182 and 0.0182.
In the same order, the values of COX6B1 (UniProt P14854) are 0.898, 0.644 and -0.234.
Turning to ARFGAP3 (UniProt Q9NP61), the thermal stability z-score stood at 0.116 in assay [1] (setting [3]), 0.294 in assay [1] (arsenate co-treatment: none) and 0.0267 in assay [2].
In the same order, the values of METTL1 (UniProt Q9UBP6) are 0.351, 0.439 and 0.207.
In the same order, the values of TADA3 (UniProt O75528) are 0.0748, 0.099 and 0.199.
In the same order, the values of ANAPC10 (UniProt Q9UM13) are 0.0276, -0.149 and -0.183.
Consider DDX39B (UniProt Q13838), for which the figures for the thermal stability z-score in assay [1] (setting [3]), in assay [1] (arsenate co-treatment: none) and in assay [2] were 0.451, 0.103 and 0.941, respectively.
In the same order, the values of CHCHD6 (UniProt Q9BRQ6) are 0.209, 0.536 and -0.66.
In the same order, the values of NMI (UniProt Q13287) are 1.24, 0.324 and 2.1.
In the same order, the values of MED23 (UniProt Q9ULK4) are -0.0582, -0.269 and -0.274.
Turning to NUCKS1 (UniProt Q9H1E3), the thermal stability z-score was determined as 0.697 in assay [1] (setting [3]), 0.845 in assay [1] (arsenate co-treatment: none) and 0.5 in assay [2].
In the same order, the values of TUBB (UniProt P07437) are 0.525, -0.284 and -0.425.
In the same order, the values of SOS1 (UniProt Q07889) are 0.324, 0.304 and 0.167.
In the same order, the values of ETF1 (UniProt P62495) are 0.635, 0.513 and -0.148.
For the target RPL7A (UniProt P62424), the thermal stability z-score was 0.455 in assay [1] (setting [3]), 0.197 in assay [1] (arsenate co-treatment: none) and -0.955 in assay [2].
In the same order, the values of SCNM1 (UniProt Q9BWG6) are -0.00102, 0.278 and 0.418.
In the same order, the values of SHTN1 (UniProt A0MZ66) are 1.1, 0.75 and 1.25.
In the same order, the values of TMEM41B (UniProt Q5BJD5) are 0.259, 0.188 and -0.153.
ARFRP1 (UniProt Q13795): the thermal stability z-score in assay [1] (setting [3]) is 0.241; in assay [1] (arsenate co-treatment: none) it was 0.279; in assay [2], -0.148.
COL12A1 (UniProt Q99715): the thermal stability z-score in assay [1] (setting [3]) was -3.01; in assay [1] (arsenate co-treatment: none), -2.92; in assay [2], 0.59.
In the same order, the values of TBX3 (UniProt O15119) are 0.163, -0.0268 and 0.206.
